Compound `COc1ccc(C(=O)c2cccc3c2ccn3S(=O)(=O)c2ccc(C)cc2)cc1` has a melting point of 135 °C. Work on `O=C1OCCN1c1ccc2cc[nH]c2c1` yielded a melting point of 199 °C. For `CCCOc1c(OC)cc(C(=O)CCC(=O)c2cc(OC)c(OC)c(OC)c2)cc1SC`, the melting point was 113 to 114 °C. Compound `CC(C)(C)C(=O)Nc1nc(CN2CCC(c3c[nH]c4ccccc34)CC2)cs1` has a melting point of 93 to 96 °C. Work on `CCCCCCCCCCCCCCCCCCCC(=O)Nc1ccc(NC(=O)NS(=O)(=O)c2ccc3ccccc3c2)cc1` yielded a melting point of 179 °C. For `O=C(CCl)Nc1ccc2ncnc(Nc3cccc(I)c3)c2c1`, the melting point was over 300 °C. `COc1cc(OC)c2c(=O)[nH]c(-c3ccc(OCCNC(C)C)c(-c4cccc(S(C)(=O)=O)c4)n3)nc2c1` gave a melting point of 222 to 223 °C. `O=C1c2ccccc2N=C(c2ccccc2)C1O` (centres undefined) showed a melting point of 260 to 262 °C. In the case of `COC(=O)c1ncnn1C1OC(COC(=O)c2ccccc2)C(OC(=O)c2ccccc2)C1OC(=O)c1ccccc1` (centres undefined), the melting point is reported as 122 to 124 °C. For `Brc1cccc(Br)c1I`, the melting point was 99 to 100 °C. In the case of `COc1cc2c(cc1O)C(C)(C)CC2`, the melting point is reported as 43.5 to 44.5 °C. Compound `CC(C)CNC(=O)C(C)(C)N=NC(C)(C)C(=O)NCC(C)C` has a melting point of 100 °C. `Cc1nc(-c2ccc(C(F)(F)F)cc2)[nH]c1CN1CCN(C(c2ccccc2)c2ccccc2)CC1` gave a melting point of 244 °C. In the case of `CN(Cc1cc(C(F)(F)F)cc(C(F)(F)F)c1)C(=O)c1cnc2ccc(Cl)cc2c1-c1ccccc1`, the melting point is reported as 105 to 106 °C. Work on `Cc1ccccc1N1CCN(CCn2c(=O)[nH]c3ccsc3c2=O)CC1` yielded a melting point of 212 to 214 °C. For `O=C(c1ccc(F)cc1)C1(c2ccc(F)cc2)CCN(Cc2ccccc2)CC1`, the melting point was 136 to 138 °C. For `COc1cc(Cl)cc(Cl)c1O`, the melting point was 62 °C. `O=C(O)C(CCN1C(=O)c2ccccc2C1=O)Oc1ccc(-c2ccc(-c3c(Cc4ccccc4)oc4ccccc34)cc2)cc1` (centres undefined) showed a melting point of 182 to 184 °C. Compound `[N-]=[N+]=C1C(=O)CC2CCCCC2C1=O` (centres undefined) has a melting point of 81 to 83 °C. Work on `CCOC(=O)CN1C(=O)C2(COc3cc4c(cc32)OCCO4)c2ccccc21` (centres undefined) yielded a melting point of 58 to 59 °C. Work on `COc1cc(C)c(C=CC(C)=CC=CC(=O)O)c(C)c1C` yielded a melting point of 189 to 191 °C. Work on `ON=C(CCN1CCN(c2ccccn2)CC1)c1ccc(F)cc1` yielded a melting point of 159 to 160 °C. Work on `CC(C)NC(=N)NC(=N)NOCCCOc1ccc(Cl)cc1` yielded a melting point of 98 to 100 °C. Compound `Cc1c(Br)c2cnnc(Cl)c2n1Cc1ccccc1` has a melting point of 138 to 140 °C. With `COC(=O)C1CCCN(COS(C)(=O)=O)c2c1cc(OCc1ccccc1)c1ccccc21` (centres undefined) the melting point was 130 to 132 °C. `O=C1N(N2CCOCC2)c2ccccc2C1(Cc1ccccc1)c1ccccc1` (centres undefined) gave a melting point of 159 to 161 °C. `O=[N+]([O-])c1ccc(NN=CCCc2ccc(F)cc2)cc1` gave a melting point of 125 to 127 °C. In the case of `C#CCN(c1ccc(C(=O)NCc2cccc(C#N)c2)cc1)C1CCc2cc3nc(C)[nH]c(=O)c3cc21` (racemic), the melting point is reported as 260 °C. `Cc1cccc(-c2cc(C(F)(F)F)n3cnc(C#N)c3n2)c1` gave a melting point of 202 °C. With `c1ccc2c(c1)ccn2Nc1ccncn1` the melting point was 81 to 85 °C. `CC(=O)Nc1cccc(-c2cncnc2)c1` gave a melting point of 157 to 158 °C. With `CCC(CO)(CO)CBr` the melting point was 78 to 80 °C. Work on `Cc1cc(C)n(C(=O)C(C)NS(=O)(=O)c2ccc(Cl)cc2)n1` (centres undefined) yielded a melting point of 150 °C. In the case of `N#Cc1nn(-c2c(Cl)cc(C(F)(F)F)cc2Cl)c(N)c1-c1ccc(C(F)(F)F)o1`, the melting point is reported as 148 to 151 °C. `Cc1oc(-c2ccccc2)nc1CCOc1ccc(CC2SC(=O)NC2=O)c2ccccc12` (centres undefined) gave a melting point of 188 to 191 °C. `CN(c1ccncc1)c1ccccc1C(=O)N1CCCCC1` showed a melting point of 110 to 111 °C. With `CCOC(=O)c1cn(CCO)c2nc(-c3ccncc3)c(F)cc2c1=O` the melting point was 223 to 225 °C. For `Cc1nc(Nc2ccc(Cl)cc2)sc1-c1nc2ccccc2c(=O)n1-c1ccccc1Cl`, the melting point was 237 to 238 °C. For `Cc1ccc(S(=O)(=O)N(CCO)CCN(CCN(CCO)S(=O)(=O)c2ccc(C)cc2)S(=O)(=O)c2ccc(C)cc2)cc1`, the melting point was 110 to 112 °C. With `Cn1c(C(F)(F)F)c(Cl)c(=O)n(-c2c(F)ccc3nc(Cl)sc23)c1=O` the melting point was 81 to 83 °C. `CC(C)(C)OC(=O)c1nn(-c2ccc(Cl)cc2Cl)c(-c2ccc(Cl)cc2)c1CC#N` showed a melting point of 168 °C. `COc1nn2ccccc2c1C(C)=O` showed a melting point of 158 °C. For `Clc1cccnc1-c1cc(OCCc2ccccn2)c2[nH]nc(Nc3cnccn3)c2c1`, the melting point was 117 to 119 °C. For `COc1ccc(-c2c(C)c3cc(O)ccc3n2Cc2ccc(OCCN3CCCCC3)cc2)c(OC)c1`, the melting point was 85 to 92 °C. For `N#CC(C#N)=C1N(CCCNC2CCCCC2)CCN1CCN1CCCCC1`, the melting point was 78 to 80 °C. Work on `C=CCn1c(=O)n(S(=O)(=O)c2ccc(Cl)cc2)c(=O)c2ccc(Cl)cc21` yielded a melting point of 161 to 163 °C. Compound `CCOC(=O)CC[C@H](NC(=O)c1ccc(C=Cc2cnc3nc(NC(C)=O)nc(O)c3c2)cc1)C(=O)OCC` has a melting point of over 200 °C. Compound `C=CCOc1ccc(C(=O)c2ccc(Cl)c(S(=O)(=O)N=CN(C)C)c2)c(Cl)c1Cl` has a melting point of 141 to 142 °C. In the case of `CCNC(=O)NCCCNn1c(COCC)nc2c(N)nc3ccccc3c21`, the melting point is reported as 138 to 141 °C. For `COc1ccccc1N1CCN(CC2CCc3ccccc3C2O)CC1` (centres undefined), the melting point was 110 to 113 °C. `c1ccc(COC[C@H]2OC(Sc3ccccc3)[C@H](OCc3ccccc3)[C@@H](OCc3ccccc3)[C@@H]2OCc2ccccc2)cc1` (some centres undefined) gave a melting point of 85 to 86 °C. `CCC(=O)Nc1cccc(-c2ccc(Cl)nn2)c1` gave a melting point of 184 to 187 °C. In the case of `CNc1nc(C)c(-c2ccncc2)s1`, the melting point is reported as 155 to 156 °C. `NC(=O)[C@H]1CCCN2CC[C@@H]3c4cc(Cl)ccc4N[C@@H]3[C@H]12` (racemic) showed a melting point of 270 °C. `COc1cccc(C=CC(=O)C2=C(O)C(=C(C)Nc3ccccc3N)C(=O)OC2=O)c1OC` gave a melting point of 212 to 215 °C. `CCOC(=O)c1ncn2c1Cn1ccnc1-c1sccc1-2` gave a melting point of 203 to 204 °C. Work on `CC(=O)O[C@H]1[C@H]([C@H](Cc2ccccc2)NC(=O)OCc2ccccc2)OC(=O)N[C@H]1Cc1ccccc1` yielded a melting point of 140 to 142 °C. Work on `O=C1C=C[C@H]2N1CCN1C(=O)C[C@H]3CCCC[C@@]321` (relative stereo) yielded a melting point of 159 to 162 °C. Compound `N#CCc1ccc(-c2nc3ccccc3o2)cc1Br` has a melting point of 190 to 191 °C. In the case of `COc1nn(-c2ccc(CBr)c(Cl)c2)nc1Cl`, the melting point is reported as 141 to 142 °C. In the case of `CCCCCCCCOc1ccc(Cl)c2c(=O)c3ccccc3sc12`, the melting point is reported as 86 to 87.5 °C. With `CCCCCCCC(=O)c1ccc(CCC(CCOC(C)=O)(CCOC(C)=O)NC(C)=O)cc1` the melting point was 83 to 86 °C. Work on `NC(=O)c1sc2nccc(OC3CCCCCC3)c2c1N` yielded a melting point of 179 to 180 °C. For `CC(Cc1cccc([N+](=O)[O-])c1)NC=O` (centres undefined), the melting point was 99 to 100 °C. For `O=C1C(c2ccccc2)=C2CCCCC2N1c1ccc(O)cc1` (centres undefined), the melting point was 168 °C. For `O=[N+]([O-])c1ccc(Oc2cccc3ccccc23)nc1`, the melting point was 87.3 to 89.3 °C. `C=CCOc1ccccc1N(CC1CO1)S(C)(=O)=O` (centres undefined) gave a melting point of 78 °C. `COc1ccc(S(=O)(=O)N(CC(C)C)CC(O)C(Cc2ccccc2)NC(=O)C(C)CS(C)(=O)=O)cc1OC` (centres undefined) gave a melting point of 130 to 133 °C. For `C=Cc1cc(C(C)NC(=O)Nc2ccc(C(C)(C)C)cc2)ccc1NS(=O)(=O)C=C` (centres undefined), the melting point was 60 to 62 °C. `COc1cc(C(=O)N2CCC(N3CCC(Oc4ccc(F)c(F)c4)CC3)C2)ccc1N` (centres undefined) showed a melting point of 138 to 139 °C. In the case of `NS(=O)(=O)c1ccccc1CN1CCCC1=O`, the melting point is reported as 149 to 151 °C. With `CN1CCN(c2ccc(C(=O)NCCCCCCCCCCO[N+](=O)[O-])cn2)CC1` the melting point was 62 to 64 °C. In the case of `CCOc1cc2ncc(C#N)c(Nc3ccc(F)cc3)c2cc1OCC`, the melting point is reported as 177 to 181 °C. With `CCCc1ccc(-c2ncc(C#N)c(Cl)n2)cc1` the melting point was 109 to 110 °C. For `CN(C)CCC(=O)c1c(-c2ccccc2)[nH]c2ccccc12`, the melting point was 136 to 138 °C. Work on `Nc1cccc(OCCCN2C(=O)c3ccccc3C2=O)c1` yielded a melting point of 157 to 162 °C. `CNCCCCN1CC[C@H](NC(=O)c2cc(Cl)c(N)cc2OC)[C@H](OC)C1` (relative stereo) showed a melting point of 129 °C. Work on `Cc1ccc(C(=O)CC(C)C(=O)O)cc1` (centres undefined) yielded a melting point of 168 to 170 °C. In the case of `O=C(Nc1cc(Cl)cc(Cl)c1O)C(=O)Nc1ncc(Cl)cc1Cl`, the melting point is reported as 245 °C. Work on `FC(F)(F)c1cc(CO[C@@H]2CCCN(Cc3ccco3)[C@@H]2c2ccccc2)cc(C(F)(F)F)c1` (relative stereo) yielded a melting point of 103 to 104 °C. Compound `CC(C)(O)C[C@@H]1CO[C@](C)([C@H]2CC[C@H]3[C@@H](O)CCC[C@@]32C)C1` has a melting point of 67 °C. For `COc1ccc2c(c1)C(=O)C(=Cc1c[nH]c3ccccc13)CO2`, the melting point was 217 to 219 °C. In the case of `COc1cccc(C2(Cn3ccnc3)CC(CSc3ccc(C)cc3)ON2C)c1` (centres undefined), the melting point is reported as 107 to 108 °C. For `COc1ccc(COC2C=C(C)C(=NN(C)C)CC(C)(C)C2OC)cc1` (centres undefined), the melting point was 71 to 72 °C. `COC(=O)C1CCC2C3CCC4CC(=O)CCC4(C)C3C(NCCC(C)C)CC12C` (centres undefined) showed a melting point of 86 to 89 °C. `Cc1ccccc1Sc1ccc2c(c1)CC[C@H]1NC(=O)CC[C@]21C` gave a melting point of 192 °C. Compound `N#CC1(Nc2ccccc2)CCCCC1` has a melting point of 67 to 69 °C. With `CCCC(CC(=O)Nc1ccccc1)(OC)OC` the melting point was 88 °C. For `O=C(NC(=NCCSCc1cccs1)NCCCc1c[nH]cn1)c1ccccc1`, the melting point was 128 to 129 °C. Work on `CCCCOc1cccn2c(=O)cc(C)nc12` yielded a melting point of 93 to 94 °C. In the case of `COc1cc2c(cc1S(=O)(=O)Cl)CCN(C(C)=O)CC2`, the melting point is reported as 153 to 160 °C. With `COc1cccc(-c2cc3cnc(N)nc3nc2NC(=O)NC(C)(C)C)c1` the melting point was 275 to 280 °C. For `CC(O)(Cc1cncs1)c1ccc(Cl)cc1Cl` (centres undefined), the melting point was 164 °C. For `COc1cc(C=O)cc(OC)c1OC1OC(CO)C(O)C(O)C1NC(C)=O` (centres undefined), the melting point was 186 to 189 °C. In the case of `COc1ccncc1Nc1nc(N2CCOCC2)nc(-n2c(C(F)F)nc3ccccc32)n1`, the melting point is reported as 161 to 163 °C. With `COc1ccccc1-c1coc2c(O)c(O)ccc2c1=O` the melting point was 220 to 222 °C. In the case of `CCCCCCCCCc1c(O)nc(-c2ccc(-c3ccc(CCCCC)cc3F)cc2)nc1O`, the melting point is reported as 51 °C. For `COc1ccc2[nH]c(CC(C)C)c(/C=C/C(=O)c3ccncc3)c2c1`, the melting point was 217 to 218 °C. In the case of `CCCc1cc(C(=O)O)nn1C`, the melting point is reported as 120 to 122 °C.

Reference: a melting point compilation (Tetko et al.; mined from patent text by program, amines drawn as free bases though some values may be those of a salt)
